Reference: patent US8192962B2, “Processes for detecting toxic substances” (Daikin Industries, Ltd., priority 2001, dated 2012)

Test system: Mitochondria-located protein genes
Assay: DNA chip mRNA expression in yeast, mitochondria-located protein genes (Table 2)
Format: cell-based, Saccharomyces cerevisiae S288C
Details: cells incubated two hours with the chemical substance
Outline: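 First, S288C yeast grown in YPD at 25° C. are dosed in log phase with one toxicant (growth-inhibiting, not lethal) for 2 h. Next, total RNA is extracted and poly(A) mRNA isolated and reverse-transcribed with Cy3/Cy5-dUTP. Finally, whole-genome chip fluorescence is read relative to unexposed cells.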

[Cl][Pb][Cl] [(4), PbCl2]
The level of expressed mRNA in the presence of chemical substance/The level of expressed mRNA in the absence of chemical substance (yeast gene YKL003C): 1.8
The level of expressed mRNA in the presence of chemical substance/The level of expressed mRNA in the absence of chemical substance (yeast gene YKL016C): 1.7
The level of expressed mRNA in the presence of chemical substance/The level of expressed mRNA in the absence of chemical substance (yeast gene YKL141W): 1.7
The level of expressed mRNA in the presence of chemical substance/The level of expressed mRNA in the absence of chemical substance (yeast gene YKL142W): 1.4
The level of expressed mRNA in the presence of chemical substance/The level of expressed mRNA in the absence of chemical substance (yeast gene YKL148C): 0.7
The level of expressed mRNA in the presence of chemical substance/The level of expressed mRNA in the absence of chemical substance (yeast gene YKL170W): 1.9
The level of expressed mRNA in the presence of chemical substance/The level of expressed mRNA in the absence of chemical substance (yeast gene YKL194C): 1.6
The level of expressed mRNA in the presence of chemical substance/The level of expressed mRNA in the absence of chemical substance (yeast gene YKR066C): 0.7
The level of expressed mRNA in the presence of chemical substance/The level of expressed mRNA in the absence of chemical substance (yeast gene YLL041C): 1.0
The level of expressed mRNA in the presence of chemical substance/The level of expressed mRNA in the absence of chemical substance (yeast gene YLR038C): 2.1
The level of expressed mRNA in the presence of chemical substance/The level of expressed mRNA in the absence of chemical substance (yeast gene YLR259C): 1.6
The level of expressed mRNA in the presence of chemical substance/The level of expressed mRNA in the absence of chemical substance (yeast gene YLR295C): 1.7
The level of expressed mRNA in the presence of chemical substance/The level of expressed mRNA in the absence of chemical substance (yeast gene YLR304C): 0.7
The level of expressed mRNA in the presence of chemical substance/The level of expressed mRNA in the absence of chemical substance (yeast gene YLR348C): 1.2
The level of expressed mRNA in the presence of chemical substance/The level of expressed mRNA in the absence of chemical substance (yeast gene YLR395C): 1.9
The level of expressed mRNA in the presence of chemical substance/The level of expressed mRNA in the absence of chemical substance (yeast gene YML054C): 3.4
The level of expressed mRNA in the presence of chemical substance/The level of expressed mRNA in the absence of chemical substance (yeast gene YML120C): 1.9
The level of expressed mRNA in the presence of chemical substance/The level of expressed mRNA in the absence of chemical substance (yeast gene YML129C): 1.2
The level of expressed mRNA in the presence of chemical substance/The level of expressed mRNA in the absence of chemical substance (yeast gene YMR023C): 1.9
The level of expressed mRNA in the presence of chemical substance/The level of expressed mRNA in the absence of chemical substance (yeast gene YMR035W): 1.7
The level of expressed mRNA in the presence of chemical substance/The level of expressed mRNA in the absence of chemical substance (yeast gene YMR083W): 1.1
The level of expressed mRNA in the presence of chemical substance/The level of expressed mRNA in the absence of chemical substance (yeast gene YMR089C): 0.9
The level of expressed mRNA in the presence of chemical substance/The level of expressed mRNA in the absence of chemical substance (yeast gene YMR152W): 0.9
The level of expressed mRNA in the presence of chemical substance/The level of expressed mRNA in the absence of chemical substance (yeast gene YMR203W): 1.4
The level of expressed mRNA in the presence of chemical substance/The level of expressed mRNA in the absence of chemical substance (yeast gene YMR267W): 0.9
The level of expressed mRNA in the presence of chemical substance/The level of expressed mRNA in the absence of chemical substance (yeast gene YNL055C): 2.0
The level of expressed mRNA in the presence of chemical substance/The level of expressed mRNA in the absence of chemical substance (yeast gene YNL071W): 1.5
The level of expressed mRNA in the presence of chemical substance/The level of expressed mRNA in the absence of chemical substance (yeast gene YNL073W): 1.7
The level of expressed mRNA in the presence of chemical substance/The level of expressed mRNA in the absence of chemical substance (yeast gene YNL104C): 0.9
The level of expressed mRNA in the presence of chemical substance/The level of expressed mRNA in the absence of chemical substance (yeast gene YNL256W): 0.6
The level of expressed mRNA in the presence of chemical substance/The level of expressed mRNA in the absence of chemical substance (yeast gene YOL096C): 1.6
The level of expressed mRNA in the presence of chemical substance/The level of expressed mRNA in the absence of chemical substance (yeast gene YOR020C): 1.7
The level of expressed mRNA in the presence of chemical substance/The level of expressed mRNA in the absence of chemical substance (yeast gene YOR037W): 1.4
The level of expressed mRNA in the presence of chemical substance/The level of expressed mRNA in the absence of chemical substance (yeast gene YOR100C): 1.7
The level of expressed mRNA in the presence of chemical substance/The level of expressed mRNA in the absence of chemical substance (yeast gene YOR130C): 1.0
The level of expressed mRNA in the presence of chemical substance/The level of expressed mRNA in the absence of chemical substance (yeast gene YOR142W): 1.0
The level of expressed mRNA in the presence of chemical substance/The level of expressed mRNA in the absence of chemical substance (yeast gene YOR150W): 1.9
The level of expressed mRNA in the presence of chemical substance/The level of expressed mRNA in the absence of chemical substance (yeast gene YOR176W): 0.9
The level of expressed mRNA in the presence of chemical substance/The level of expressed mRNA in the absence of chemical substance (yeast gene YOR187W): 2.0
The level of expressed mRNA in the presence of chemical substance/The level of expressed mRNA in the absence of chemical substance (yeast gene YOR316C): 1.5
The level of expressed mRNA in the presence of chemical substance/The level of expressed mRNA in the absence of chemical substance (yeast gene YPL040C): 1.7
The level of expressed mRNA in the presence of chemical substance/The level of expressed mRNA in the absence of chemical substance (yeast gene YPL134C): 1.6
The level of expressed mRNA in the presence of chemical substance/The level of expressed mRNA in the absence of chemical substance (yeast gene YPL135W): 1.2
The level of expressed mRNA in the presence of chemical substance/The level of expressed mRNA in the absence of chemical substance (yeast gene YPL215W): 1.5
The level of expressed mRNA in the presence of chemical substance/The level of expressed mRNA in the absence of chemical substance (yeast gene YPL262W): 1.2
The level of expressed mRNA in the presence of chemical substance/The level of expressed mRNA in the absence of chemical substance (yeast gene YPR024W): 1.0
The level of expressed mRNA in the presence of chemical substance/The level of expressed mRNA in the absence of chemical substance (yeast gene YPR037C): 1.3
The level of expressed mRNA in the presence of chemical substance/The level of expressed mRNA in the absence of chemical substance (yeast gene YPR047W): 1.5
The level of expressed mRNA in the presence of chemical substance/The level of expressed mRNA in the absence of chemical substance (yeast gene YPR067W): 0.9
The level of expressed mRNA in the presence of chemical substance/The level of expressed mRNA in the absence of chemical substance (yeast gene YPR134W): 1.7
